# Reference: patent US20100130579A1, “CANCER THERAPY” (Georgetown University, priority 2006, published 2010)
# Experiments:
# [1] = test system: cyclin D1 protein; assay: Western blot of cyclin D1 protein levels; format: cell-based, human; details: 3 days
# Experimental: FIGS. 3A-3C. Mahanine down-regulates cyclin D1 protein in prostate cancer cells. FIG. 3A and FIG. 3B: Western blots showing cyclin D1 protein levels in PC3 (A) and LNCaP (B) cells treated with 0, 1, 2 and 3 μg/ml mahanine for 3 days. Protein lysates (50 μg) from PC3 and LNCaP cells were resolved on 12% SDS-PAGE, and immunoblots were probed with antibodies to cyclin D1. All immunoblots were re-probed with β-actin antibodies to ensure equal loading. Representative photographs from an experiment that was repeated thrice. Quantitative analyses of relative levels of cyclin D1 proteins are shown on the right panels. […] FIG. 3C: PC3 cells were plated on chamber slides and treated with or without 2 μg/ml mahanine for 2 days. Cells were then fixed in methanol, incubated with cyclin D1 antibody overnight, Alexi Fluor-conjugated secondary antibodies for 1 hour and counter stained with propidium iodide (PI). Slides were then mounted and examined using a fluorescence microscope. Photographs were taken at the same magnification (×20) and then transported to Photoshop. Representative photographs from an experiment that was repeated twice.
# Western blots analysis: Protein lysates were prepared from PC3 and LNCaP cells that were treated with or without mahanine. […] Band intensities were quantified by utilizing ImageJ software (NIH, Bethesda, Md.).
# [2] = test system: cyclin D1; assay: RT-PCR of cyclin D1 mRNA in cancer cells; format: cell-based, human
# [3] = test system: cyclin D1; assay: Gene array (microarray) analysis of cyclin D1 expression; format: cell-based, human; details: PC3 cells, 2 μg/ml, 2 days
# Experimental: FIGS. 2A-2D. Mahanine down-regulates cyclin D1 expression in prostate and other cancer cells. FIG. 2A: Microarray analyses showing PC3 cells treated with (2 μg/ml) mahanine (+) or vehicle (−) for 2 days and RNA was extracted and microarray analysis was performed. FIG. 2B and FIG. 2C: PC3 (left panel) and LNCaP (right panel) cells were treated with 0, 1, 2 and 3 μg/ml mahanine for 3 days. RNA was extracted, and RT-PCR assays were performed to detect cyclin D1 and GAPDH mRNAs. Representative photograph from an experiment that was repeated thrice. Quantitative estimations of relative levels of cyclin D1 mRNAs (lower panel) were determined by densitometric measurements of RT-PCR gels from three independent experiments after normalization with GAPDH. […]
# Microarray analysis: Total RNA was isolated from […] cells treated with or without mahanine using TRIZOL reagent (Invitrogen Corp., Carlsbad, Calif.). […] RNA was evaluated by electrophoresis before continuing with probe synthesis and hybridization. […] Following repetitive washing in saline-sodium citrate/SDS, hybridized cDNA probes were detected by chemiluminescence. […] Bound biotinylated cDNA probe was detected with alkaline phosphatase-conjugated streptavidin and CDP-Star chemiluminescent substrate (SuperArray). […]
# [4] = test system: PC3 cells; assay: Flow cytometric cell cycle analysis, PC3; format: cell-based, human; details: 3 days
# Experimental: FIG. 4A-4B. Mahanine arrests prostate cancer cells at G0/G1 phase of cell cycle. To determine if down-regulation of cyclin D1 by mahanine treatments affect cell cycle, PC3 4(A) and LNCaP 4(B) cells were treated with 0, 1 and 2 μg/ml mahanine for 3 days. After treatment, flow cytometric analyses were performed. The percentage of cells in the G0/G1, S and G2/M-phase of the cell cycle were shown on right. FACS analysis of PC3 and LNCaP prostate cancer cells with vehicle or 2 μg/ml mahanine are shown in the left panel. Values are the mean from two independent experiments in duplicates.
# Since cyclin D1 regulates cell cycle progression at the G0/G1 phase, Aplicants examined the cell cycle profile of PC3 and LNCaP cells in the presence of various concentrations of mahanine.
# [5] = test system: caspase-3; details: PC3 cells; cited from earlier work
smiles,measurement,setting,value
CC(C)=CCC[C@@]1(C)C=Cc2c(c(C)cc3c2[nH]c2cc(O)ccc23)O1 [mahanine],cyclin D1 protein levels decreased to,"[1]; PC3 cells, 1 μg/ml, p<0.01",about 40%
same,cyclin D1 protein (Western blot),"[1]; PC3 cells, 1, 2 and 3 μg/ml",dose-dependent decrease
same,cyclin D1 expression (RT-PCR),"[2]; PC3 cells, 1, 2 and 3 μg/ml, 3 days",down-regulated the expression of cyclin D1 in PC3 cells in a dose-dependent manner
same,cyclin D1 expression (RT-PCR),"[2]; epidermoid (A431), lung (A549), pancreatic (ASPC-1), colon (HT-29), breast (MCF7) and ovarian (SKOV-3) cancer cells, 2 and 3 μg/ml, 2 days",down regulation of cyclin D1
same,cyclin D1 expression (gene array),[3],down-regulated the expression of cyclin D1
same,cells in S-phase,"[4]; 1 μg/ml, vehicle 7.5%",decreased the S-phase
same,cells in G0/G1-phase,"[4]; 1 μg/ml, vehicle 26%",increased the G0/G1-phase
same,cells in G0/G1-phase,[4]; 2 μg/ml,further increased
same,cells in S-phase,[4]; 2 μg/ml,completely abolished
same,caspase-3 cleavage and activation,[5],greatly increased caspase-3 cleavage and activation
